Experiments:
Assay type in all cases: cell-based
AMPK [1] = test: AMPK activation, enzyme-linked immunosorbent assay
Outline: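 Reported in ranges of less than 1 μM, 1-10 μM, 10-20 μM, 20-50 μM, 50-100 μM, and >100 μM, the values come from a cell-based assay. There, an enzyme-linked immunosorbent assay measured the relative concentration of phosphorylated acetyl-CoA carboxylase as a readout of AMPK activity. The endpoint is the EC50 of each compound for AMPK activation.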

AMPK [2] = test: Western blot assay for AMPK activity; details: gel electrophoresis data relative to GST-gAd (FIG. 3)
Method: Western blot assays for AMPK activity were performed on compounds 1, 2, 94 and 95. FIG. 3 presents gel electrophoresis data for compounds 1, 2, 94 and 95 relative to GST-gAd.

[3] = tested on: Human liver cells (HepG2); test: Reduction of glycogen content in liver cells (Amplex Red); details: HepG2 cells treated for 16 hours, Amplex Red (FIG. 4)
Method: The ability of compounds of the present invention to reduce the glycogen content in liver cells was determined using a functional assay. Human liver cells (HepG2) were seeded in a 96 well plate and on the next day were treated with compounds 1, 2, 94 and 95 for 16 hours. The glycogen content of the cells was determined using Amplex Red.

EC50 (AMPK [1]) | IC50 value, glycogen content [3] | SMILES | AMPK activity in the western blot assay (AMPK [2])
< 1000 nM |  | Cc1ccc(CN2CCC(Oc3ccc(C(=O)NC4CCN(Cc5ccc(Cl)cc5)CC4)cc3F)CC2)cc1 [Compound 73, N-(1-(4-chlorobenzyl)piperidin-4-yl)-3-fluoro-4-(1-(4-methylbenzyl)piperidin-4-yloxy)benzamide] | 
< 1000 nM |  | O=C(NC1CCN(Cc2ccccc2)CC1)c1ccc(OC2CCN(Cc3ccc(F)c(F)c3)CC2)c(Cl)c1 [Compound 74, N-(1-benzylpiperidin-4-yl)-3-chloro-4-(1-(3,4-difluorobenzyl)piperidin-4-yloxy)benzamide] | 
< 1000 nM |  | O=C(NC1CCN(Cc2ccccc2)CC1)c1cc(Cl)c(OC2CCN(Cc3ccc(F)c(F)c3)CC2)c(Cl)c1 [Compound 76, N-(1-benzylpiperidin-4-yl)-3,5-dichloro-4-(1-(3,4-difluorobenzyl)piperidin-4-yloxy)benzamide] | 
< 1000 nM |  | N#Cc1ccc(CN2CCC(Oc3c(Cl)cc(C(=O)NC4CCN(Cc5ccccc5)CC4)cc3Cl)CC2)cc1 [Compound 77, N-(1-benzylpiperidin-4-yl)-3,5-dichloro-4-(1-(4-cyanobenzyl)piperidin-4-yloxy)benzamide] | 
< 1000 nM |  | CC(C)(C)OC(=O)N1CCC(NC(=O)c2ccc(OC3CCN(Cc4ccc(C#N)cc4)CC3)cc2)CC1 [Compound 78, tert-butyl 4-(4-(1-(4-cyanobenzyl)piperidin-4-yloxy)benzamido)piperidine-1-carboxylate] | 
< 1000 nM |  | O=C(NC1CCN(Cc2ccccc2)CC1)c1ccc(OC2CCN(Cc3ccc(Cl)c(Cl)c3)CC2)c(F)c1 [Compound 82, N-(1-benzylpiperidin-4-yl)-4-(1-(3,4-dichlorobenzyl)piperidin-4-yloxy)-3-fluorobenzamide] | 
< 1000 nM |  | O=C(NC1CCN(Cc2ccccc2)CC1)c1cccc(OC2CCN(c3ccccn3)CC2)c1 [Compound 86, N-(1-benzylpiperidin-4-yl)-3-(1-(pyridin-2-yl)piperidin-4-yloxy)benzamide] | 
1000 to 10000 nM |  | N#Cc1ccc(N2CCC(Oc3cccc(C(=O)NC4CCN(Cc5ccncc5)CC4)c3)CC2)cc1 [Compound 88, N-(1-(pyridin-4-ylmethyl)piperidin-4-yl)-3-(1-(4-cyanophenyl)piperidin-4-yloxy)benzamide] | 
1000 to 10000 nM |  | N#Cc1cccc(CN2CCC(Oc3cccc(C(=O)NC4CCN(Cc5ccccc5)CC4)c3)CC2)c1 [Compound 89, N-(1-benzylpiperidin-4-yl)-3-(1-(3-cyanobenzyl)piperidin-4-yloxy)benzamide] | 
1000 to 10000 nM |  | CC(C)(C)OC(=O)N1CCC(Oc2ccc(C(=O)NC3CCN(Cc4ccccc4)CC3)cc2Cl)CC1 [Compound 90, tert-butyl 4-(4-(1-benzylpiperidin-4-ylcarbamoyl)-2-chlorophenoxy)piperidine-1-carboxylate] | 
> 100000 nM |  | O=C(NC1CCN(Cc2ccccc2)CC1)c1ccc(OC2CCNCC2)c(Cl)c1 [Compound 93, N-(1-benzylpiperidin-4-yl)-3-chloro-4-(piperidin-4-yloxy)benzamide] | 
< 1000 nM | sub-micromolar | COc1cc(C(=O)NCCCNC(=O)OC(C)(C)C)ccc1OC1CCN(Cc2ccc(C(F)(F)F)cc2)CC1 [Compound 94, tert-butyl 3-(3-methoxy-4-(1-(4-(trifluoromethyl)benzyl)piperidin-4-yloxy)benzamido)propylcarbamate] | strong activity
1000 to 10000 nM |  | COc1cc(C(=O)NCCCN2CCOCC2)ccc1OC1CCN(Cc2ccc(Cl)cc2)CC1 [Compound 98] | 
1000 to 10000 nM |  | O=C(NCCCN1CCOCC1)c1ccc(OC2CCN(Cc3ccc(Cl)cc3)CC2)cc1 [Compound 100, 4-(1-(4-chlorobenzyl)piperidin-4-yloxy)-N-(3-morpholinopropyl)benzamide] | 
20000 to 50000 nM |  | O=C(c1ccc(OC2CCN(Cc3ccccc3)CC2)cc1)N1CCN(c2ccccc2)CC1 [Compound 103, (4-(1-benzylpiperidin-4-yloxy)phenyl)(4-phenylpiperazin-1-yl)methanone] | 

The remaining lines, values behind:

SMILES | EC50 (AMPK [1]) | IC50 value, glycogen content [3] | AMPK activity in the western blot assay (AMPK [2])
COc1ccc(CN2CCC(Oc3ccc(C(=O)NC4CCN(Cc5ccccc5)CC4)cc3Cl)CC2)cc1 [Compound 1, N-(1-benzylpiperidin-4-yl)-3-chloro-4-(1-(4-methoxybenzyl)piperidin-4-yloxy)benzamide] | < 1000 nM | sub-micromolar | strong activity
COc1cc(C(=O)NC2CCN(Cc3ccccc3)CC2)ccc1OC1CCN(Cc2ccccc2)CC1 [Compound 2, N-(1-benzylpiperidin-4-yl)-4-(1-benzylpiperidin-4-yloxy)-3-methoxybenzamide] | < 1000 nM | sub-micromolar | strong activity
O=C(NC1CCN(Cc2ccccc2)CC1)c1cc(Cl)c(OC2CCN(Cc3ccc(Cl)cc3)CC2)c(Cl)c1 [Compound 75, N-(1-benzylpiperidin-4-yl)-3,5-dichloro-4-(1-(4-chlorobenzyl)piperidin-4-yloxy)benzamide] | < 1000 nM |  | 
N#Cc1ccc(CN2CCC(Oc3ccc(C(=O)NC4CCNCC4)cc3)CC2)cc1 [Compound 79, 4-(1-(4-cyanobenzyl)piperidin-4-yloxy)-N-(piperidin-4-yl)benzamide] | > 100000 nM |  | 
O=C(NC1CCN(Cc2ccc(Cl)cc2)CC1)c1ccc(OC2CCN(Cc3ccc(Cl)c(Cl)c3)CC2)c(F)c1 [Compound 80, N-(1-(4-chlorobenzyl)piperidin-4-yl)-4-(1-(3,4-dichlorobenzyl)piperidin-4-yloxy)-3-fluorobenzamide] | < 1000 nM |  | 
N#Cc1ccc(N2CCC(Oc3ccc(C(=O)NC4CCN(Cc5ccc(Cl)cc5)CC4)cc3F)CC2)cc1 [Compound 81, N-(1-(4-chlorobenzyl)piperidin-4-yl)-4-(1-(4-cyanophenyl)piperidin-4-yloxy)-3-fluorobenzamide] | < 1000 nM |  | 
N#Cc1ccc(CN2CCC(Oc3ccc(C(=O)NC4CCN(Cc5ccncc5)CC4)cc3)CC2)cc1 [Compound 83, 4-(1-(4-cyanobenzyl)piperidin-4-yloxy)-N-(1-(pyridin-4-ylmethyl)piperidin-4-yl)benzamide] | < 1000 nM |  | 
O=C(NC1CCN(Cc2ccccc2)CC1)c1ccc(OC2CCN(Cc3ccc(Cl)c(Cl)c3)CC2)c(Cl)c1 [Compound 84, N-(1-benzylpiperidin-4-yl)-3-chloro-4-(1-(3,4-dichlorobenzyl)piperidin-4-yloxy)benzamide] | < 1000 nM |  | 
N#Cc1ccc(CN2CCC(Oc3ccc(C(=O)NC4CCN(Cc5ccccn5)CC4)cc3)CC2)cc1 [Compound 85, 4-(1-(4-cyanobenzyl)piperidin-4-yloxy)-N-(1-(pyridin-2-ylmethyl)piperidin-4-yl)benzamide] | < 1000 nM |  | 
O=C(NC1CCN(Cc2ccncc2)CC1)c1cccc(OC2CCN(c3ccc(C(F)(F)F)cc3)CC2)c1 [Compound 87, N-(1-(pyridin-4-ylmethyl)piperidin-4-yl)-3-(1-(4-(trifluoromethyl)phenyl)piperidin-4-yloxy)benzamide] | < 1000 nM |  | 
CC(C)(C)C(=O)N1CCC(Oc2ccc(C(=O)NC3CCN(Cc4ccccc4)CC3)cc2Cl)CC1 [Compound 91, N-(1-benzylpiperidin-4-yl)-3-chloro-4-(1-pivaloylpiperidin-4-yloxy)benzamide] | < 1000 nM |  | 
CC(C)(C)OC(=O)N1CCC(Oc2ccc(C(=O)NC3CCN(Cc4ccccc4)CC3)cc2F)CC1 [Compound 92, tert-butyl 4-(4-(1-benzylpiperidin-4-ylcarbamoyl)-2-fluorophenoxy)piperidine-1-carboxylate] | 1000 to 10000 nM |  | 
COc1ccc(CN2CCC(Oc3ccc(C(=O)N4CCN(C(=O)OC(C)(C)C)CC4)cc3)CC2)cc1 [Compound 96, tert-butyl 4-(4-(1-(4-methoxybenzyl)piperidin-4-yloxy)benzoyl)piperazine-1-carboxylate] | 1000 to 10000 nM |  | 
COc1ccc(CN2CCC(Oc3ccc(C(=O)NCCCNC(=O)OC(C)(C)C)cc3Cl)CC2)cc1 [Compound 97, tert-butyl 3-(3-chloro-4-(1-(4-methoxybenzyl)piperidin-4-yloxy)benzamido)propylcarbamate] | 1000 to 10000 nM |  | 
CC(C)(C)OC(=O)N1CCN(C(=O)c2ccc(OC3CCN(Cc4ccccc4)CC3)cc2)CC1 [Compound 99, tert-butyl 4-(4-(1-benzylpiperidin-4-yloxy)benzoyl)piperazine-1-carboxylate] | 1000 to 10000 nM |  | 
COc1ccc(CN2CCC(Oc3ccc(C(=O)NCCCN4CCOCC4)cc3Cl)CC2)cc1 [Compound 101, 3-chloro-4-(1-(4-methoxybenzyl)piperidin-4-yloxy)-N-(3-morpholinopropyl)benzamide] | 10000 to 20000 nM |  | 
CC(C)(C)OC(=O)NCCCNC(=O)c1ccc(OC2CCN(Cc3ccccc3)CC2)c(Cl)c1 [Compound 102, tert-butyl 3-(4-(1-benzylpiperidin-4-yloxy)-3-chlorobenzamido)propylcarbamate] | 10000 to 20000 nM |  | 
Cc1ccc(CN2CCC(Oc3ccc(C(=O)NCCCN4CCOCC4)cc3)CC2)cc1 [Compound 104, 4-(1-(4-methylbenzyl)piperidin-4-yloxy)-N-(3-morpholinopropyl)benzamide] | 10000 to 20000 nM |  | 
O=C(c1ccc(OC2CCN(Cc3ccccc3)CC2)cc1)N1CCN(Cc2ccccn2)CC1 [Compound 105, (4-(1-benzylpiperidin-4-yloxy)phenyl)(4-(pyridin-2-ylmethyl)piperazin-1-yl)methanone] | 10000 to 20000 nM |  | 

— US8697727B2, “N-substituted-heterocycloalkyloxybenzamide compounds and methods of use” (Rigel Pharmaceuticals, Inc., priority 2006, dated 2014)
